Experimental data from patent US20160304461A1, “QUINOLONE COMPOUND AND PHARMACEUTICAL COMPOSITION” (OTSUKA PHARMACEUTICAL CO., LTD., priority 2007, published 2016).

Legend:
[1] = test system: human neuroblastoma cell lines SH-SY5Y; experiment: Improvement of mitochondrial dysfunction in MPP+-treated SH-SY5Y cells (Alamar Blue mitochondrial oxidation reduction activity); type: cell-based; settings: SH-SY5Y cells in 1.5 mM MPP+ medium, relative to cells in DMSO alone = 100%, read-out: Fluorescence Intensity (%); for activity at 0.01 µg/mL: test compound 0.01 μg/ml; for activity at 0.03 µg/mL: test compound 0.03 μg/ml; for activity at 0.1 µg/mL: test compound 0.1 μg/ml; for activity at 0.3 µg/mL: test compound 0.3 μg/ml; for activity at 1 µg/mL: test compound 1 μg/ml
Protocol: Evaluation of Improvement of Mitochondrial Dysfunction using Human Neuroblastoma Cell Lines SH-SY5Y Treated with 1-methyl-4-phenylpyridinium (MPP^+)
In human neuroblastoma cell lines SH-SY5Y in which mitochondrial activity was injured by MPP^+ treatment (Bollimuntha S. et al., J Biol Chem, 280, 2132-2140 (2005) and Shang T. et al., J Biol Chem, 280, 34644-34653 (2005)), improvement of the mitochondrial dysfunction was evaluated on the basis of the measurement value of the mitochondrial oxidation reduction activity using Alamar Blue fluorescent dye after the compound addition (Nakai M. et. al, Exp Neurol, 179, 103-110 (2003)).
The human neuroblastoma cell lines SH-SY5Y were cultured in Dulbecco's Modified Eagle's Medium containing 10% fetal bovine serum (DMEM containing 50 units/ml penicillin and 50 μg/ml streptomycin as antibiotics) at 37° C. in the presence of 5% carbon dioxide. Cells were scattered on a poly-D-lysine-coated 96-well black plate at a concentration of 3-6×10^4 cells/cm^2 (medium amount: 100 μl/well), and cultured in the above medium for two days. Further, the medium was changed to a DMEM containing a 1% N2 supplement (N2-DMEM) or to a medium (100 μl/well) in which 1.5 mM MPP^+ was dissolved. The cells were cultured therein for 39 to 48 hours, and then subjected to a mitochondrial oxidation reduction activity measurement system. A sample compound that had been previously dissolved in dimethyl sulfoxide (DMSO) was diluted with N2-DMEM, and added in a volume of 10 μl/well 24 hours before the activity measurement (final compound concentration: 0.01 to 1 μg/ml).
After removal of the medium by suction, a balanced salt solution containing 10% Alamar Blue (154 mM sodium chloride, 5.6 mM potassium chloride, 2.3 mM calcium chloride, 1.0 mM magnesium chloride, 3.6 mM sodium bicarbonate, 5 mM glucose, 5 mM HEPES, pH 7.2) was added in a volume of 100 μl/well, and reacted in an incubator at 37° C. for 1 hour. The fluorescent intensity was detected using a fluorescence detector (a product of Hamamatsu Photonics K.K., excitation wavelength 530 nm, measurement wavelength 580 nm) to thereby measure the mitochondrial oxidation reduction activity.
The fluorescent intensity of the well of the cells cultured in a medium containing MPP^+ and in each of the sample compounds was relatively evaluated based on a 100% fluorescent intensity of the well of the cells cultured in a medium containing DMSO alone (final concentration: 0.1%).

| Structure (SMILES) | activity at 0.01 µg/mL [1] [%] | activity at 0.03 µg/mL [1] [%] | activity at 0.1 µg/mL [1] [%] | activity at 0.3 µg/mL [1] [%] | activity at 1 µg/mL [1] [%] | melting point [°C] |
| --- | --- | --- | --- | --- | --- | --- |
| CCCOc1ccc(F)c2c(=O)c(-c3ccc(OC)c(OC)c3)c[nH]c12 [Example 62, 3-(3,4-Dimethoxyphenyl)-5-fluoro-8-propoxy-1H-quinolin-4-one] | 66 | 62 | 79 | 84 | 80 | 217 to 218 |
| CCCOc1ccc(F)c2c(=O)c(-c3ccc(OC)nc3)c[nH]c12 [Example 63, 5-Fluoro-3-(6-methoxypyridin-3-yl)-8-propoxy-1H-quinolin-4-one] | 58 | 65 | 74 | 75 | 85 | 215 to 216 |
| CCCOc1ccc(F)c2c(=O)c(-c3ccc(OC)nc3OC)c[nH]c12 [Example 64, 3-(2,6-Dimethoxypyridin-3-yl)-5-fluoro-8-propoxy-1H-quinolin-4-one] | 55 | 65 | 74 | 72 | 77 | 198 to 199 |
| CCn1cc(-c2ccc(OC)cc2)c(=O)c2c(F)ccc(OCC3CC3)c21 [Example 66, 8-Cyclopropylmethoxy-1-ethyl-5-fluoro-3-(4-methoxyphenyl)-1H-quinolin-4-one] | 66 | 72 | 83 | 77 | 60 | 150 to 152 |
| CCCOc1ccc(F)c2c(=O)c(-c3ccc(OC(F)(F)F)cc3)c(C)[nH]c12 [Example 70, 5-Fluoro-2-methyl-8-propoxy-3-(4-trifluoromethoxyphenyl)-1H-quinolin-4-one] | 56 | 57 | 67 | 71 | 63 | 167 to 168 |
| CCCOc1ccc(F)c2c(=O)c(-c3ccc(CC)cc3)c(C)[nH]c12 [Example 71, 3-(4-Ethylphenyl)-5-fluoro-2-methyl-8-propoxy-1H-quinolin-4-one] | 56 | 61 | 73 | 78 | 72 | 221 to 222 |
| COc1ccc(-c2c[nH]c3c(-c4ccco4)ccc(F)c3c2=O)cc1 [Example 86, 5-Fluoro-8-furan-2-yl-3-(4-methoxyphenyl)-1H-quinolin-4-one] | 52 | 59 | 68 | 61 | 39 | 209 to 211 |
| COc1ccc(-c2c[nH]c3c(-c4ccsc4)ccc(F)c3c2=O)cc1 [Example 87, 5-Fluoro-3-(4-methoxyphenyl)-8-thiophen-3-yl-1H-quinolin-4-one] | 63 | 66 | 79 | 63 | 51 | 183 to 184 |
| CCCOc1ccc(F)c2c(=O)c(-c3ccc(OC)cc3)cn(C)c12 [Example 91, 5-Fluoro-3-(4-methoxyphenyl)-1-methyl-8-propoxy-1H-quinolin-4-one] | 65 | 69 | 81 | 82 | 83 | 147 to 148 |
| CCCOc1ccc(F)c2c(=O)c(-c3ccc(OC)cc3)cn(CC)c12 [Example 92, 1-Ethyl-5-fluoro-3-(4-methoxyphenyl)-8-propoxy-1H-quinolin-4-one] | 63 | 75 | 77 | 69 | 55 | 123 to 125 |
| CCCOc1ccc(F)c2c(=O)c(-c3ccc(OC)cc3)cn(CCOCC)c12 [Example 93, 1-(2-Ethoxyethyl)-5-fluoro-3-(4-methoxyphenyl)-8-propoxy-1H-quinolin-4-one] | 66 | 79 | 86 | 80 | 69 | 108 to 109 |
| CCCOc1ccc(F)c2c(=O)c(-c3ccc(OC)cc3)cn(CC3CC3)c12 [Example 94, 1-Cyclopropylmethyl-5-fluoro-3-(4-methoxyphenyl)-8-propoxy-1H-quinolin-4-one] | 56 | 67 | 69 | 59 | 41 | 60 to 62 |
| CCCOc1ccc(F)c2c(=O)c(-c3ccsc3CO)c[nH]c12 [Example 100, 5-Fluoro-3-(2-hydroxymethylthiophen-3-yl)-8-propoxy-1H-quinolin-4-one] | 56 | 56 | 71 | 73 | 84 | 181 to 184 |
